Results published in patent US12275706B2, “Malate salt of N-(4-{[6,7-bis(methyloxy) quinolin-4-yl]oxy}phenyl)-N′-(4-fluorophenyl)cyclopropane-1,1-dicarboxamide, and crystalline forms thereof for the treatment of cancer” (Exelixis, Inc., priority 2009, dated 2025).
Blank lines part the entries; values can stand above or below the compound they belong to.

Columns and labels:
[1] = Salt screen: salt formation, crystallinity, hygroscopicity and other data; details: Table 1
physchem = details: water, thermodynamic from solid
[2] = Solid state stability on exposure to high humidity and temperature; type: physicochemical
Source text: Other solid state properties which may be used to characterize the crystalline N-1 forms of Compounds (I) and (II) are shown in the figures and discussed in the examples below.

[3] = Moisture sorption (water uptake); type: physicochemical
Protocol: (§1) The amount of water taken up was calculated at about 0.60 wt % at 90% RH. […] The amount of water associated with this salt was calculated at about 0.5 wt % by Karl Fischer analysis and correlates with TGA and GVS analysis.
Moisture sorption isotherms were collected in a VTI SGA-100 Symmetric Vapor Analyzer using approximately 10 mg of sample. The sample was dried at 60° C. until the loss rate of 0.0005 wt %/min was obtained for 10 minutes. The sample was tested at 25° C. and 3 or 4, 5, 15, 25, 35, 45, 50, 65, 75, 85, and 95% RH. Equilibration at each RH was reached when the rate of 0.0003 wt %/min for 35 minutes was achieved or a maximum of 600 minutes.

[4] = Water solubility of free base and salts (salt screen); details: for Solubility: water, 10 mg solids per mL water
[5] = Storage stability at controlled temperature/relative humidity; type: physicochemical
[6] = Karl Fischer water analysis; type: physicochemical; details: correlates with TGA and GVS
Protocol: as §1

[7] = DSC/TGA thermal stability; type: physicochemical
Protocol: as §1
The TGA measurements were performed in a TA Instruments™ model Q500 or 2950, employing an open pan setup. The sample (about 10-30 mg) was placed in a platinum pan previously tared. The weight of the sample was measured accurately and recorded to a thousand of a milligram by the instrument. The furnace was purged with nitrogen gas at 100mL/min. Data were collected between room temperature and 300° C. at 10° C./min heating rate.
DSC measurements were performed in a TA Instruments™ model Q2000, Q1000 or 2920, employing an open pan setup. The sample (about 2-6 mg) was weighed in an aluminum pan and recorded accurately recorded to a hundredth of a milligram, and transferred to the DSC. The instrument was purged with nitrogen gas at 50 mL/min. Data were collected between room temperature and 300° C. at 10° C./min heating rate. The plot was made with the endothermic peaks pointing down.

other data relating to the free base and each salt (salt formation, crystallinity, hygroscopicity, remarks) [1]: Crystalline salt, low solubility
Compound: Malonate

other data relating to the free base and each salt (salt formation, crystallinity, hygroscopicity, remarks) [1]: very low solubility
Solubility (physchem): < 1 µg/mL
Compound: COc1cc2nccc(Oc3ccc(NC(=O)C4(C(=O)Nc5ccc(F)cc5)CC4)cc3)c2cc1OC [Free base, N-(4-{[6,7-bis(methyloxy)quinolin-4-yl]oxy}phenyl)-N′-(4-fluorophenyl)cyclopropane-1,1-dicarboxamide]

Compound: C1=Cc2cccc(OC[C@H]3CNCCO3)c2C1.O=S(=O)(O)c1ccccc1 [Benzenesulfonate]
other data relating to the free base and each salt (salt formation, crystallinity, hygroscopicity, remarks) [1]: Crystalline Salt; possible sulfonic acid formation

other data relating to the free base and each salt (salt formation, crystallinity, hygroscopicity, remarks) [1]: Amorphous, salt
Compound: L-Lactate

Compound: Cl [Chloride]
other data relating to the free base and each salt (salt formation, crystallinity, hygroscopicity, remarks) [1]: Crystalline but Hygroscopic; possible hydrate
moisture sensitivity, phase ([2]; high humidity (75% humidity) and high temperature (40° C.)): undesirable moisture sensitivity, changing phase

weight gain due to absorption of H2O ([3]; highest among the salts tested): 8%
Solubility [4]: 26 µg/mL
other data relating to the free base and each salt (salt formation, crystallinity, hygroscopicity, remarks) [1]: Crystalline but Hygroscopic.
Compound: Phosphate

Compound: Tosylate
Solubility [4]: 7 µg/mL
other data relating to the free base and each salt (salt formation, crystallinity, hygroscopicity, remarks) [1]: Crystalline salt, low solubility

Compound: Benzoate
other data relating to the free base and each salt (salt formation, crystallinity, hygroscopicity, remarks) [1]: no salt formation; mixture of free base and acid

other data relating to the free base and each salt (salt formation, crystallinity, hygroscopicity, remarks) [1]: Crystalline salt, low solubility
Compound: O=S(=O)(O)O [Sulfate]

Compound: CC(=O)O [Acetate]
other data relating to the free base and each salt (salt formation, crystallinity, hygroscopicity, remarks) [1]: no salt formation; mixture of free base and acid

uptake of water, reversibility [3]: reversible with a slight hysteresis
amount of water taken up ([3]; at 90% RH): about 0.60 wt %
Solubility [4]: 59 µg/mL
amount of water associated with the salt [6]: about 0.5 wt %
solid state phase and degree of crystallinity ([2]; 75% RH at 40° C. for 1 week): remained unchanged
solvent losses (DSC/TGA) [7]: No solvent losses were observed
stable up to (DSC/TGA) [7]: up to 185 °C
Compound: COc1cc2nccc(Oc3ccc(NC(=O)C4(C(=O)Nc5ccc(F)cc5)CC4)cc3)c2cc1OC.O=C(O)C[C@H](O)C(=O)O [Compound (I), N-(4-{[6,7-bis(methyloxy)quinolin-4-yl]oxy}phenyl)-N′-(4-fluorophenyl)cyclopropane-1,1-dicarboxamide, (L) Malate Salt]
solubility (in words) [4]: sufficient solubility for use in a pharmaceutical composition
change in assay, purity, moisture and dissolution ([5]; 25° C./60% relative humidity (RH)): no change in assay, purity, moisture and dissolution
change in assay, purity, moisture and dissolution ([5]; 40° C./60% RH): no change in assay, purity, moisture and dissolution

other data relating to the free base and each salt (salt formation, crystallinity, hygroscopicity, remarks) [1]: Crystalline Salt, low solubility
Compound: Fumarate
